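Step 1: Grow cells in 96-well plates. Step 2: Expose to compound for 48 hours at 5 concentrations. Step 3: Interpolate endpoints linearly; if unreached, use highest concentration. GI50 = concentration required for 50% inhibition of growth.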 Calls of active or inactive are those of the source. Cut-off read from the data, not from the text of the source: active = GI50 up to about 1.1 µM and inactive = higher.
Experiments:
Assay in all cases: NCI anticancer screen, dose series, 48 h
[1] = tested on: 786-0
[2] = tested on: COLO 205
[3] = tested on: EKVX
[4] = tested on: HCT-116
[5] = tested on: HOP-62
[6] = tested on: HOP-92
[7] = tested on: IGROV-1
[8] = tested on: KM12
[9] = tested on: M14
[10] = tested on: MCF7
[11] = tested on: MOLT-4
[12] = tested on: NCI-H23
[13] = tested on: OVCAR-4
[14] = tested on: RPMI-8226
[15] = tested on: SK-MEL-28
[16] = tested on: SK-MEL-2
[17] = tested on: SK-MEL-5
[18] = tested on: SN12C
[19] = tested on: SNB-19
[20] = tested on: U-251

Row | SMILES | GI50 [1] | GI50 [2] | GI50 [3] | GI50 [4] | GI50 [5] | GI50 [6] | GI50 [7] | GI50 [8] | GI50 [9] | GI50 [10] | GI50 [11] | GI50 [12] | GI50 [13] | GI50 [14] | GI50 [15] | GI50 [16] | GI50 [17] | GI50 [18] | GI50 [19] | GI50 [20]
1 | CCOCC(=O)N[C@H]1CCc2cc(OC(=O)COCC)c(OC)c(OC)c2-c2ccc(SC)c(=O)cc21 | 0.036 µM (active) | 0.0219 µM (active) | 0.0571 µM (active) | 0.0175 µM (active) | 0.0533 µM (active) | 0.0248 µM (active) | 0.0324 µM (active) | 0.00708 µM (active) | 0.0256 µM (active) | 0.00686 µM (active) | 0.0269 µM (active) | 0.0273 µM (active) | 10.5 µM (inactive) | 0.0299 µM (active) | 0.0143 µM (active) | 0.019 µM (active) | 0.00478 µM (active) | 0.0625 µM (active) | 0.885 µM (active) | 0.0275 µM (active)
2 | O=C1c2ccccc2-c2nnc(-c3ccc(Cl)cc3)cc21 | > 10 µM (inactive) | > 10 µM (inactive) | > 10 µM (inactive) | > 10 µM (inactive) | > 10 µM (inactive) | > 10 µM (inactive) | > 10 µM (inactive) | > 10 µM (inactive) | > 10 µM (inactive) | > 10 µM (inactive) | > 10 µM (inactive) | > 10 µM (inactive) | > 10 µM (inactive) | > 10 µM (inactive) | > 10 µM (inactive) | > 10 µM (inactive) | > 10 µM (inactive) | > 10 µM (inactive) | > 10 µM (inactive) | > 10 µM (inactive)
3 | Cn1c2c3ccc(Cl)cc3nc-2c(Cl)c2ccccc21 | 15.5 µM (inactive) | 12.2 µM (inactive) | 22.9 µM (inactive) | 1.71 µM (inactive) | 16.4 µM (inactive) | 15.7 µM (inactive) | 16.6 µM (inactive) | 16.9 µM (inactive) | 20.9 µM (inactive) | 26.2 µM (inactive) | 19 µM (inactive) | 13.4 µM (inactive) | 17.1 µM (inactive) | 4.31 µM (inactive) | 17.7 µM (inactive) | 21.4 µM (inactive) | 16.4 µM (inactive) | 14.4 µM (inactive) | 22.9 µM (inactive) | 10.9 µM (inactive)
4 | COc1cc2c3c(cc(Cl)nc3c1OC)C(=O)C(=O)N2 | 5.94 µM (inactive) | 21.9 µM (inactive) | 6.81 µM (inactive) | 4.33 µM (inactive) | 19.6 µM (inactive) | 1.81 µM (inactive) | 9.89 µM (inactive) | 16.4 µM (inactive) | 15.6 µM (inactive) | 2.05 µM (inactive) | 2.34 µM (inactive) | 16.7 µM (inactive) | 1.6 µM (inactive) | 2.68 µM (inactive) | 17.1 µM (inactive) | 14.1 µM (inactive) | 16.4 µM (inactive) | 8.99 µM (inactive) | 22.9 µM (inactive) | 16.5 µM (inactive)
5 | O=C1/C(=C/c2cccc([N+](=O)[O-])c2)N=C(c2ccccc2)N1c1nc2ccc(Sc3ccccc3)cc2[nH]1 | 60.1 µM (inactive) | 31.8 µM (inactive) | 62.8 µM (inactive) | 41.6 µM (inactive) | 83 µM (inactive) | 71.4 µM (inactive) | 37.8 µM (inactive) | 31.8 µM (inactive) | 38.9 µM (inactive) | 31.5 µM (inactive) | 34.8 µM (inactive) | 46.6 µM (inactive) | 49.3 µM (inactive) | 33.3 µM (inactive) | 84.7 µM (inactive) | 30.3 µM (inactive) | 28.8 µM (inactive) | 60 µM (inactive) | 80 µM (inactive) | 37.3 µM (inactive)
6 | O=C1/C(=C\c2ccccc2)c2ccccc2N1Cc1ccccc1 | 7.01 µM (inactive) | 16.6 µM (inactive) | 12.5 µM (inactive) | 4.72 µM (inactive) | 13.1 µM (inactive) | 3.85 µM (inactive) | 10.7 µM (inactive) | 6.04 µM (inactive) | 9.16 µM (inactive) | 3.45 µM (inactive) | 2.67 µM (inactive) | 10.7 µM (inactive) | 12.6 µM (inactive) | 2.74 µM (inactive) | 11.1 µM (inactive) | 12.2 µM (inactive) | 11 µM (inactive) | 11.9 µM (inactive) | 10.3 µM (inactive) | 8.69 µM (inactive)
7 | CN(CCNC(=O)c1c[nH]c2c1Cc1ccccc1-2)CCNC(=O)c1c[nH]c2c1Cc1ccccc1-2 | 20.6 µM (inactive) | 35 µM (inactive) | 37.1 µM (inactive) | 36.1 µM (inactive) | 26.4 µM (inactive) | 22.6 µM (inactive) | 27.9 µM (inactive) | 33.3 µM (inactive) | 30.8 µM (inactive) | 22.9 µM (inactive) | 24.7 µM (inactive) | 41.5 µM (inactive) | 59.3 µM (inactive) | 26.5 µM (inactive) | 48.5 µM (inactive) | 20.6 µM (inactive) | 21.8 µM (inactive) | 66.4 µM (inactive) | 58.2 µM (inactive) | 18.5 µM (inactive)
8 | Cc1cc(N(CCC#N)CCC#N)ccc1/C=C1\SC(=S)NC1=O | 74.6 µM (inactive) | > 100 µM (inactive) | 51.3 µM (inactive) | 54.2 µM (inactive) | 22.7 µM (inactive) | 36.4 µM (inactive) | 65.3 µM (inactive) | 62.2 µM (inactive) | 40.3 µM (inactive) | 54.2 µM (inactive) | 91 µM (inactive) | > 100 µM (inactive) | > 100 µM (inactive) | 17.2 µM (inactive) | > 100 µM (inactive) | > 100 µM (inactive) | > 100 µM (inactive) | > 100 µM (inactive) | > 100 µM (inactive) | 42.5 µM (inactive)
9 | COc1ccccc1CNCc1nc2ccccc2[nH]1 | > 100 µM (inactive) | > 100 µM (inactive) | 92.9 µM (inactive) | > 100 µM (inactive) | > 100 µM (inactive) | > 100 µM (inactive) | > 100 µM (inactive) | > 100 µM (inactive) | > 100 µM (inactive) | > 100 µM (inactive) | > 100 µM (inactive) | > 100 µM (inactive) | > 100 µM (inactive) | > 100 µM (inactive) | > 100 µM (inactive) | > 100 µM (inactive) | 48.5 µM (inactive) | > 100 µM (inactive) | > 100 µM (inactive) | > 100 µM (inactive)
10 | Cc1ccc(S(=O)(=O)N(CCN)c2cc3c4c(c2)Oc2cccc5c2C4c2c(cccc2O3)O5)cc1 | 16.6 µM (inactive) | 22.6 µM (inactive) | 13.6 µM (inactive) | 16.3 µM (inactive) | 15.4 µM (inactive) | 0.9 µM (active) | 11 µM (inactive) | > 100 µM (inactive) | 25.6 µM (inactive) | 20.7 µM (inactive) | 18.5 µM (inactive) | 36.1 µM (inactive) | > 10 µM (inactive) | 30.8 µM (inactive) | 25.2 µM (inactive) | 22.8 µM (inactive) | 19.9 µM (inactive) | 34 µM (inactive) | 29.4 µM (inactive) | 19.6 µM (inactive)
11 | Cc1c(N)nc(C2CC(=O)N2CC(N)C(N)=O)nc1C(=O)NC(C(=O)NC(C)C(O)C(C)C(=O)NC(C(=O)NCCc1nc(-c2nc(C(=O)NCCNCC(C)O)cs2)cs1)C(C)O)C(OC1OC(CO)C(O)C(O)C1OC1OC(CO)C(O)C(OC(N)=O)C1O)c1c[nH]cn1 (stereo not given) | 33.2 µM (inactive) | 3.08 µM (inactive) | > 41.1 µM (inactive) | 0.148 µM (active) | 0.0556 µM (active) | 0.295 µM (active) | 37.2 µM (inactive) | 19.9 µM (inactive) | 2.26 µM (inactive) | 13.8 µM (inactive) | 0.701 µM (active) | 0.437 µM (active) | 7.57 µM (inactive) | 9.02 µM (inactive) | 43.2 µM (inactive) | 38.1 µM (inactive) | 0.809 µM (active) | 1.45 µM (inactive) | 5.38 µM (inactive) | 1.83 µM (inactive)
12 | COc1ccc(OC)c(C2CCc3nc4nc(N)nc(N)c4cc3C2)c1 (stereo not given) | 2.69 µM (inactive) | 3.32 µM (inactive) | 13.4 µM (inactive) | 1.83 µM (inactive) | 2.13 µM (inactive) | 2.19 µM (inactive) | 10.2 µM (inactive) | 2.29 µM (inactive) | 1.8 µM (inactive) | 1.89 µM (inactive) | 2.12 µM (inactive) | 18.5 µM (inactive) | 2.07 µM (inactive) | 5.78 µM (inactive) | 2.4 µM (inactive) | 1.97 µM (inactive) | 5.05 µM (inactive) | 1.77 µM (inactive) | 2.43 µM (inactive) | 1.76 µM (inactive)
13 | CCOC(=O)C1=C(O)C2C3CC4C2C(O)=C(C(=O)OCC)C2C1C3C42 (stereo not given) | > 100 µM (inactive) | > 100 µM (inactive) | > 100 µM (inactive) | > 100 µM (inactive) | > 100 µM (inactive) | 95.5 µM (inactive) | > 100 µM (inactive) | > 100 µM (inactive) | > 100 µM (inactive) | > 100 µM (inactive) | > 100 µM (inactive) | > 100 µM (inactive) | > 100 µM (inactive) | 84.5 µM (inactive) | > 100 µM (inactive) | > 100 µM (inactive) | > 100 µM (inactive) | > 100 µM (inactive) | > 100 µM (inactive) | > 100 µM (inactive)
14 | CN(CCCCCl)P(=O)(OCc1ccc([N+](=O)[O-])o1)OC[C@H]1O[C@@H](n2cc(F)c(=O)[nH]c2=O)C[C@@H]1O (stereo not given in full) | 0.883 µM (active) | < 0.01 µM (active) | 35.4 µM (inactive) | 0.995 µM (active) | 0.145 µM (active) | 0.64 µM (active) | 1.58 µM (inactive) | 12.4 µM (inactive) | 1.04 µM (active) | < 0.0227 µM (active) | 0.583 µM (active) | 0.989 µM (active) | 12.8 µM (inactive) | 1.27 µM (inactive) | 21.2 µM (inactive) | 17.1 µM (inactive) | 0.849 µM (active) | 0.107 µM (active) | 1.85 µM (inactive) | 1.63 µM (inactive)
